Data from ChEMBL document CHEMBL4130457, “Discovery of AZD-2098 and AZD-1678, Two Potent and Bioavailable CCR4 Receptor Antagonists” (ACS Med Chem Lett, 2017).

Key:
[1] = target: T1, C-C chemokine receptor type 4 (Homo sapiens, UniProt P51679); assay: Antagonist activity at recombinant human CCR4 expressed in CHO-K1 cells assessed as inhibition of CCL22 induced Ca2+ mobilization after 2 hrs by FMAT based fluorescence assay; assay type: functional, cell-based
T1 sequence (P51679 whole entry): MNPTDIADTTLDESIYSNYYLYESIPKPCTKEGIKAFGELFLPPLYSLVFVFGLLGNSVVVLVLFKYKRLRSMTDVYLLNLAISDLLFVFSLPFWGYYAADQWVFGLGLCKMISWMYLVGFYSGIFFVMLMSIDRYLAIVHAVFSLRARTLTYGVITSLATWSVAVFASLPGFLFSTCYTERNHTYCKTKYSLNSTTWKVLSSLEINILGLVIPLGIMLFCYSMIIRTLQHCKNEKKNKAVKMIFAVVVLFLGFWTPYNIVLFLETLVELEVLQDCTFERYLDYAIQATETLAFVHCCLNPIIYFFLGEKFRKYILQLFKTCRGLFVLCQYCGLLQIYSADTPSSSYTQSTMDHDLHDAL

[2] = Protein binding in human plasma; assay type: ADME, cell-free; conditions: read-out: PPB (converted)
[3] = Lipophilicity, log P of the compound; assay type: physicochemical; conditions: octanol/water
[4] = target: T2, C-C chemokine receptor type 4 (Homo sapiens) (UniProt P51679); assay: Antagonist activity at recombinant human CCR4 expressed in CHO-K1 cells assessed as inhibition of CCL22 induced Ca2+ mobilization at 10 uM after 2 hrs by FMAT based fluorescence assay relative to control; assay type: functional, cell-based
T2 sequence (whole entry): T1 sequence (P51679 whole entry)

**Q.** Which IC50 [1] does the source give for `COc1nc(Cl)cnc1NS(=O)(=O)c1scc(Cl)c1Cl` here?
**A.** 7.94 nM

**Q.** Which IC50 [1] does the source give for `COc1nc(Br)cnc1NS(=O)(=O)c1ccccc1` here?
**A.** 794 nM

**Q.** Which results are given for `O=S(=O)(Nc1ncc(Cl)nc1OCc1cccc(Br)c1)c1cccc(Cl)c1Cl`?
**A.** fraction unbound [2]: < 0.001; IC50 [1]: 3.98 nM

**Q.** With `COc1nc(CO)c(C)nc1NS(=O)(=O)c1cccc(Cl)c1Cl` as the compound, how does the fraction unbound [2] read?
**A.** 0.013

**Q.** And the IC50 [1]?
**A.** 39.8 nM

**Q.** What about the logP [3] of the same compound?
**A.** 2.4

**Q.** For `COc1nc(Br)cnc1NS(=O)(=O)c1ccc(Cl)cc1`, which IC50 [1] is on record?
**A.** 126 nM

**Q.** For `CCOc1nc(Br)cnc1NS(=O)(=O)c1ccc(Cl)s1`, which IC50 [1] is on record?
**A.** 200 nM

**Q.** Which fraction unbound [2] does the source give for `COc1ncc(F)nc1NS(=O)(=O)c1cccc(Cl)c1Cl` here?
**A.** < 0.002

**Q.** And the IC50 [1]?
**A.** 3.98 nM

**Q.** What about the logP [3] of the same compound?
**A.** 3.3

**Q.** What does the source list for `CCOc1cnc(NS(=O)(=O)c2cccc(Cl)c2Cl)c(OC)n1`?
**A.** fraction unbound [2]: < 0.001; IC50 [1]: 12.6 nM; logP [3]: 4.1

**Q.** What does the source list for `O=S(=O)(Nc1ncc(Cl)nc1OCc1cncnc1)c1cccc(Cl)c1Cl`?
**A.** fraction unbound [2]: < 0.001; IC50 [1]: 12.6 nM

**Q.** Which results are given for `COc1ncc(C)nc1NS(=O)(=O)c1cccc(Cl)c1Cl`?
**A.** fraction unbound [2]: < 0.002; IC50 [1]: 50.1 nM

**Q.** With `C=CCOc1nc(Cl)cnc1NS(=O)(=O)c1cccc(Cl)c1Cl` as the compound, how does the IC50 [1] read?
**A.** 15.8 nM

**Q.** For `COc1nc(Br)cnc1NS(=O)(=O)c1c(Cl)cccc1Cl`, which IC50 [1] is on record?
**A.** 631 nM

**Q.** For `COc1ncc(Cl)nc1NS(=O)(=O)c1cccc(Cl)c1Cl`, which fraction unbound [2] is on record?
**A.** < 0.001

**Q.** And the IC50 [1]?
**A.** 7.94 nM

**Q.** And the logP [3]?
**A.** 4.5

**Q.** For `CC(C)(C)COc1nc(Cl)cnc1NS(=O)(=O)c1cccc(Cl)c1Cl`, which IC50 [1] is on record?
**A.** 7940 nM

**Q.** What does the source list for `COc1nc(C)cnc1NS(=O)(=O)c1cccc(Cl)c1Cl`?
**A.** fraction unbound [2]: 0.0035; IC50 [1]: 39.8 nM; logP [3]: 3

**Q.** Which IC50 [1] does the source give for `COc1nc(Cl)cnc1NS(=O)(=O)c1ccnc(Cl)c1Cl` here?
**A.** 10000 nM

**Q.** With `C#CCOc1nc(Cl)cnc1NS(=O)(=O)c1cccc(Cl)c1Cl` as the compound, how does the IC50 [1] read?
**A.** 2.51 nM

**Q.** For `COc1nc(Br)cnc1NS(=O)(=O)c1cc(Cl)c(Cl)s1`, which IC50 [1] is on record?
**A.** 1000 nM

**Q.** With `COc1nc(Cl)cnc1NS(=O)(=O)c1cccc(Cl)c1C` as the compound, how does the IC50 [1] read?
**A.** 20 nM

**Q.** For `COc1nc(Br)cnc1NS(=O)(=O)c1ccc(Cl)cc1Cl`, which IC50 [1] is on record?
**A.** 126 nM

**Q.** For `O=S(=O)(Nc1ncc(Cl)nc1OCc1ccccc1CO)c1cccc(Cl)c1Cl`, which fraction unbound [2] is on record?
**A.** < 0.001

**Q.** Which results are given for `COc1nc(Br)cnc1NS(=O)(=O)c1cccc(Cl)c1Cl`?
**A.** fraction unbound [2]: < 0.001; IC50 [1]: 10 nM

**Q.** For `CSc1nc(Br)cnc1NS(=O)(=O)c1ccc(Cl)s1`, which IC50 [1] is on record?
**A.** 3160 nM

**Q.** Which IC50 [1] does the source give for `COc1nc(Br)cnc1NS(=O)(=O)c1cccc(Cl)c1` here?
**A.** 100 nM

**Q.** For `COc1nc(Br)cnc1NS(=O)(=O)c1ccc(Cl)c(Cl)c1`, which IC50 [1] is on record?
**A.** 200 nM

**Q.** With `COc1nc(Br)cnc1NS(=O)(=O)c1cccs1` as the compound, how does the IC50 [1] read?
**A.** 631 nM

**Q.** For `COc1nc(Br)cnc1NS(=O)(=O)c1ccccc1Cl`, which IC50 [1] is on record?
**A.** 158 nM

**Q.** For `COc1nc(S(C)(=O)=O)cnc1NS(=O)(=O)c1cccc(Cl)c1Cl`, which IC50 [1] is on record?
**A.** 5010 nM

**Q.** Which IC50 [1] does the source give for `COc1nc(Cl)cnc1NS(=O)(=O)c1cccc(Cl)c1C#N` here?
**A.** 63.1 nM

**Q.** For `COc1nc(CO)cnc1NS(=O)(=O)c1cccc(Cl)c1Cl`, which fraction unbound [2] is on record?
**A.** 0.038

**Q.** And the IC50 [1]?
**A.** 25.1 nM

**Q.** And the logP [3]?
**A.** 2.1

**Q.** For `COc1nc(CO)c(Cl)nc1NS(=O)(=O)c1cccc(Cl)c1Cl`, which fraction unbound [2] is on record?
**A.** 0.004

**Q.** What about the IC50 [1] of the same compound?
**A.** 3.98 nM

**Q.** What about the logP [3] of the same compound?
**A.** 3.2

**Q.** Which fraction unbound [2] does the source give for `COc1nccnc1NS(=O)(=O)c1scc(Cl)c1Cl` here?
**A.** 0.025

**Q.** And the IC50 [1]?
**A.** 20 nM

**Q.** And the logP [3]?
**A.** 2.8

**Q.** With `COc1nc(F)c(F)nc1NS(=O)(=O)c1cccc(Cl)c1Cl` as the compound, how does the fraction unbound [2] read?
**A.** < 0.002

**Q.** And the IC50 [1]?
**A.** 1 nM

**Q.** With `CCc1nc(Br)cnc1NS(=O)(=O)c1ccc(Cl)s1` as the compound, how does the IC50 [1] read?
**A.** 5010 nM

**Q.** For `COc1nc(Br)cnc1NS(=O)(=O)c1ccsc1`, which IC50 [1] is on record?
**A.** 1260 nM

**Q.** With `COc1nc(Br)cnc1NS(=O)(=O)c1sc(Cl)cc1Br` as the compound, how does the IC50 [1] read?
**A.** 39.8 nM

**Q.** Which IC50 [1] does the source give for `CNc1nc(Br)cnc1NS(=O)(=O)c1ccc(Cl)s1` here?
**A.** > 10000 nM

**Q.** And the inhibition [4]?
**A.** 44%

**Q.** Which IC50 [1] does the source give for `CCCCS(=O)(=O)Nc1ncc(Cl)nc1OC` here?
**A.** 3160 nM

**Q.** For `COc1nc(Cl)cnc1NS(=O)(=O)c1cccc(F)c1Cl`, which IC50 [1] is on record?
**A.** 15.8 nM

**Q.** Which IC50 [1] does the source give for `COc1nc(Br)cnc1NS(=O)(=O)c1sccc1-c1ccccc1` here?
**A.** 1000 nM

**Q.** For `COc1nc(Cl)cnc1NS(=O)(=O)c1cccc(Cl)c1Cl`, which fraction unbound [2] is on record?
**A.** < 0.001

**Q.** What about the logP [3] of the same compound?
**A.** 4.1

**Q.** For `COc1nc(Cl)cnc1NS(=O)(=O)c1cccc(Cl)c1F`, which IC50 [1] is on record?
**A.** 79.4 nM

**Q.** For `COc1nc(Cl)cnc1NS(=O)(=O)c1cccc(C(F)(F)F)c1Cl`, which IC50 [1] is on record?
**A.** 63.1 nM

**Q.** Which IC50 [1] does the source give for `COc1nc(Br)cnc1NS(=O)(=O)c1cc(Cl)cc(Cl)c1` here?
**A.** 5010 nM

**Q.** With `O=S(=O)(Nc1ncc(Cl)nc1OCc1cccnc1)c1cccc(Cl)c1Cl` as the compound, how does the fraction unbound [2] read?
**A.** < 0.001

**Q.** What about the IC50 [1] of the same compound?
**A.** 0.631 nM

**Q.** Which IC50 [1] does the source give for `COc1nc(Br)cnc1NS(=O)(=O)c1cc(Cl)ccc1Cl` here?
**A.** 3160 nM
